This is an account of results in patent US20260217693A1, “SRPK1 INHIBITORS AND METHODS OF USE” (ALLIANTHERA (SUZHOU) BIOPHARMACEUTICAL CO., LTD., priority 2023, published 2026).

SMILES strings stand for the structures.

The target of this assay is SRPK1 (Homo sapiens, UniProt Q96SB4). As to the kind of experiment: SRPK1 assay, Method 1 (ADP-Glo luminescence). In kind it is biochemical. To be noted: Method 1 (no asterisk): substrate Human SRSF1/SF2, 25° C. for 90 min, test compounds 30 μM top, 3-fold, duplicate. On the procedure:
The SPRK1 assay was performed as follows:
Method 1: The assay buffer was prepared. The reference compound was diluted to 10 mM. The test compounds were prepared at a concentration of 30 mM. Fifteen nL of compounds/DMSO were transferred to a multi-well plate. Then, 7.5 ul enzyme SRPK1 was added to each well, the plate was spun down at 1000 rpm and centrifuged for 30 sec. Then, 7.5 ul substrate Human SRSF1/SF2 was added to each well, the plate spun down at 1000 rpm and centrifuged for 30 sec. The plate was then incubated at 25° C. for 90 min. After 90 min, 5 μl of ADP-Glo™ Reagent was added to each well and the plate incubated at room temperature for 60 minutes. Then, 10 μl of Kinase Detection Reagent was added to each well and the plate incubate at room temperature for 60 minutes. The luminescence of each well was recorded on Envision. The test compounds were at 30 μM top, 3-fold, in duplicate, and the final concentration of DMSO was 0.1%.
All assays were performed using Method 1, except where indicated with an asterisk (*) in the below table, indicating Method 2 was used.

SRPK1, sequence (Q96SB4 whole entry): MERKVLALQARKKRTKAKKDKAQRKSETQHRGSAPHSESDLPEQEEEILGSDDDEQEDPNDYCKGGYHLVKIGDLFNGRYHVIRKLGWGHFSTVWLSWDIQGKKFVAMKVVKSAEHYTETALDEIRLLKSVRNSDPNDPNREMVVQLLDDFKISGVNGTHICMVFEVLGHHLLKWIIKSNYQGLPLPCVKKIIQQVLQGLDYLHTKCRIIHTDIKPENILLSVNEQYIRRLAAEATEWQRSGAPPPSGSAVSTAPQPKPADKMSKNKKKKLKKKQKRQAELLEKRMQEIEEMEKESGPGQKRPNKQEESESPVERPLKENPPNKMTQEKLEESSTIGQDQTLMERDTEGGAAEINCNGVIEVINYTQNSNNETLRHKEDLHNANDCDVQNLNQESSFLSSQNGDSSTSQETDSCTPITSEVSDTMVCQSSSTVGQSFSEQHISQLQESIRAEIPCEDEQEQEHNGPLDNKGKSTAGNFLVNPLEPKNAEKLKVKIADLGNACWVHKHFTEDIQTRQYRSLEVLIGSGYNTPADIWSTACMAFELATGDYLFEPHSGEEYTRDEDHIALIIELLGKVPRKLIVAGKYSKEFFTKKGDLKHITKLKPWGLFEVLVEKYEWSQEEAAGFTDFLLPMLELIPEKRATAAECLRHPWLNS

Regarding `O=C(Nc1cc(C(F)(F)F)cnc1N1CCC(F)(F)CC1)c1ccc(-c2ccncc2)o1` [Compound 070], half-maximal inhibition (IC50) required 4640 nM.
Regarding `O=C(Nc1cc(C2CC2)cnc1N1CCc2[nH]ncc2C1)c1ccc(-c2cn[nH]c2)o1` [Compound 121], the IC50 was > 30000 nM.
The result for `CN1CCC2(CCN(c3ncc(C(F)(F)F)cc3NC(=O)c3ccc(C4CCOCC4)o3)CC2)C1=O` [Compound 030] reads 232 nM; that for `CC1(O)CCN(c2ncc(C3CC3)cc2NC(=O)c2ccc(C3CCOCC3)o2)CC1` [Compound 137, N-(5-Cyclopropyl-2-(4-hydroxy-4-methylpiperidin-1-yl)pyridin-3-yl)-5-(tetrahydro-2H-pyran-4-yl) furan-2-carboxamide], 210 nM; that for `O=C(Nc1cc(C2CC2)cnc1N1CCc2[nH]ncc2C1)c1ccc(Br)o1` [Compound 120], > 30000 nM.
For `CN(C)C(=O)C1(C)CCN(c2ncc(C(F)(F)F)cc2NC(=O)c2ccc(C3CCOCC3)o2)CC1` [Compound 045], the 50% inhibitory concentration (IC50) was determined as 84.5 nM.
With `O=C(Nc1cc(C(F)(F)F)cnc1N1CCC(O)CC1)c1ccc(-c2c[nH]cn2)o1` [Compound 104] the figure was 556 nM; with `O=C(Nc1cc(C(F)(F)F)cnc1N1CCC(O)CC1)c1ccc(-c2cn[nH]c2)cc1` [Compound 129], > 30000 nM.
`O=C(Nc1cc(C(F)(F)F)cnc1N1CCC(CO)C1)c1ccc(C2CCOCC2)o1` (stereo not shown) [Compound 038] showed an IC50 of 24500 nM.
The result for `CN1CCN(c2ncc(C(F)(F)F)cc2NC(=O)c2ccc(-c3ccncc3)o2)CC1` [Compound 003] reads 971 nM; that for `C[C@@H]1C[C@H](O)CCN1c1ncc(C(F)(F)F)cc1NC(=O)c1ccc(-c2cn[nH]c2)o1` [Compound 110], 16.1 nM; that for `O=C(Nc1cc(Cl)cnc1N1CCC(O)CC1)c1ccc(C2CCOCC2)o1` [Compound 007], 252 nM.
As for `C[C@@H]1C[C@@H](O)CCN1c1ncc(C(F)(F)F)cc1NC(=O)c1ccc(-c2ccnc(N)c2)o1` [Compound 114], the IC50 was > 30000 nM.
On to `O=C(Nc1cc(C(F)(F)F)cnc1N1CCC(O)CC1)c1ccc(-c2cnccn2)o1` [Compound 074, N-(2-(4-hydroxypiperidin-1-yl)-5-(trifluoromethyl)pyridin-3-yl)-5-(pyrazin-2-yl) furan-2-carboxamide], for which the IC50 came out at 641 nM.
With `O=C(Nc1cc(C(F)(F)F)cnc1N1CCC(O)CC1)c1ccc(-c2cccnc2)o1` [Compound 056] the figure was 23.5 nM; with `O=C(Nc1cc(C(F)(F)F)cnc1N1CCSCC1)c1ccc(C2CCOCC2)o1` [Compound 041], > 30000 nM.
As for `CC1(C(=O)O)CCN(c2ncc(C(F)(F)F)cc2NC(=O)c2ccc(C3CCOCC3)o2)CC1` [Compound 044], the IC50 is 154 nM.
The result for `O=C(Nc1cc(C(F)(F)F)cnc1N1CCC(O)CC1)c1ccc(C(F)(F)F)cn1` [Compound 077] reads > 30000 nM.
The result for `O=C(Nc1cc(C(F)(F)F)cnc1-c1cn[nH]c1)c1ccc(-c2ccncc2)o1` [Compound 014] reads > 30000 nM; that for `O=C(Nc1cc(C(F)(F)F)cnc1N1CCC(O)CC1)c1ccccn1` [Compound 047], 260 nM; that for `C[C@@H]1C[C@@H](O)CCN1c1ncc(C2CC2)cc1NC(=O)c1ccc(-c2ccnc(N)c2)o1` [Compound 119], > 30000 nM.
The result for `Nc1cc(-c2ccc(C(=O)Nc3cc(C4CC4)cnc3N3CCc4[nH]ncc4C3)o2)ccn1` [Compound 122] reads > 30000 nM.
`O=C(Nc1cc(C(F)(F)F)cnc1N1CCC(O)(C(F)(F)F)CC1)c1ccc(C2CCOCC2)o1` [Compound 069] gave an IC50 of 63.7 nM.
The molecule `CNC(=O)C1(C)CCN(c2ncc(C(F)(F)F)cc2NC(=O)c2ccc(C3CCOCC3)o2)CC1` [Compound 057] came in with an IC50 of 30.5 nM.
With `CC1(O)CCCN(c2ncc(C(F)(F)F)cc2NC(=O)c2ccc(C3CCOCC3)o2)CC1` (stereo not shown) [Compound 055] the figure was 45.1 nM; with `O=C(Nc1cc(C(F)(F)F)cnc1N1CCCC(O)CC1)c1ccc(C2CCOCC2)o1` (stereo not shown) [Compound 031], 360 nM.
With `NC(=O)C1(O)CCN(c2ncc(C(F)(F)F)cc2NC(=O)c2ccc(C3CCOCC3)o2)CC1` [Compound 096, 4-hydroxy-1-[3-[(5-tetrahydropyran-4-ylfuran-2-carbonyl)amino]-5-(trifluoromethyl)-2-pyridyl]piperidine-4-carboxamide] the figure was 18.3 nM; with `O=C1CC2(CCN(c3ncc(C(F)(F)F)cc3NC(=O)c3ccc(C4CCOCC4)o3)CC2)C1` [Compound 065, N-(2-(2-oxo-7-azaspiro[3.5]nonan-7-yl)-5-(trifluoromethyl)pyridin-3-yl)-5-(tetrahydro-2H-pyran-4-yl) furan-2-carboxamide], 204 nM.
The result for `O=C(Nc1cc(C2CC2)cnc1N1CCC(O)CC1)c1ccc(-c2cn[nH]c2)cn1` [Compound 125] reads > 30000 nM; that for `O=C(Nc1cc(C(F)(F)F)cnc1N1CCC(O)CC1)c1cc(Cl)ccn1` [Compound 091], > 30000 nM.
The molecule `O=C(O)c1ccc(C(=O)Nc2cc(C(F)(F)F)cnc2N2CCC(O)CC2)o1` [Compound 098] came in with an IC50 of 871 nM.
The result for `C[C@@H]1C[C@@H](O)CCN1c1ncc(C2CC2)cc1NC(=O)c1ccc(-c2cc(N)nc(N)c2)o1` [Compound 134] reads > 30000 nM; that for `CN1CCC(c2ncc(C(F)(F)F)cc2NC(=O)c2ccc(C3CCOCC3)o2)CC1` [Compound 071, N-(2-(1-methylpiperidin-4-yl)-5-(trifluoromethyl)pyridin-3-yl)-5-(tetrahydro-2H-pyran-4-yl) furan-2-carboxamide], 6870 nM.
The result for `O=C(Nc1cc(C(F)(F)F)cnc1N1CCC(O)CC1)c1cccnc1` [Compound 051] reads > 30000 nM; that for `O=C(Nc1cc(C(F)(F)F)cnc1N1CCCC(O)C1)c1ccc(C2CCOCC2)o1` (stereo not shown) [Compound 072], 754 nM; that for `O=C(Nc1cc(C(F)(F)F)cnc1N1CCC(O)CC1)c1ccncc1` [Compound 046, N-[2-(4-hydroxy-1-piperidyl)-5-(trifluoromethyl)-3-pyridyl]pyridine-4-carboxamide], > 30000 nM.
With `O=C(Nc1cc(C(F)(F)F)cnc1N1CCC(O)(C(F)(F)F)CC1)c1ccc(-c2ccncc2)o1` [Compound 064] the figure was 249 nM; with `O=C(Nc1cc(C2CC2)cnc1N1CCC(O)CC1)c1ccc(-c2ccncc2)o1` [Compound 034], 24.8 nM.
`CC(=O)OC1CCN(c2ncc(C(F)(F)F)cc2NC(=O)c2ccc(-c3ccnnc3)o2)CC1` [Compound 049]: the IC50 amounted to 2340 nM.
The result for `C[C@@H]1C[C@@H](O)CCN1c1ncc(C(F)(F)F)cc1NC(=O)c1ccc(-c2cn[nH]c2)o1` [Compound 113] reads > 30000 nM; that for `CC1C[C@@H](O)CCN1c1ncc(C(F)(F)F)cc1NC(=O)c1ccc(-c2ccncc2)o1` (stereo in doubt) [Compound 079, N-(2-((2R,4S)-4-hydroxy-2-methylpiperidin-1-yl)-5-(trifluoromethyl)pyridin-3-yl)-5-(pyridin-4-yl) furan-2-carboxamide], 102 nM; that for `O=C(Nc1cc(C(F)(F)F)cnc1N1CCC(O)CC1)c1ccc(-c2nc[nH]n2)o1` [Compound 105], 1530 nM.
With `O=C(Nc1cc(C(F)(F)F)cnc1N1CCS(=O)(=O)CC1)c1ccc(C2CCOCC2)o1` [Compound 042] the figure was > 30000 nM.
The result for `Nc1cc(-c2ccc(C(=O)Nc3cc(C(F)(F)F)cnc3N3CCc4[nH]ncc4C3)o2)cc(N)n1` [Compound 130] reads > 30000 nM; that for `O=C(Nc1cc(C(F)(F)F)cnc1N1CCC(O)CC1)c1ccc(C2CCOCC2)o1` [Compound 005], 41.9 nM; that for `CC1(O)CCN(c2ncc(Cl)cc2NC(=O)c2ccc(-c3ccncc3)o2)CC1` [Compound 024], 346 nM.
Turning to `O=C(Nc1cc(C(F)(F)F)cnc1N1CCC(O)CC1)c1cccc(Cl)n1` [Compound 087], the IC50 turned out to be 249 nM.
In the case of `O=C(Nc1cc(C(F)(F)F)cnc1-c1ccccc1)c1ccc(C2CCOCC2)o1` [Compound 008], the IC50 was > 30000 nM.
For the molecule `CC1(O)CCN(c2ncc(C3CC3)cc2NC(=O)c2ccc(-c3ccncc3)o2)CC1` [Compound 136, N-(5-cyclopropyl-2-(4-hydroxy-4-methylpiperidin-1-yl)pyridin-3-yl)-5-(pyridin-4-yl) furan-2-carboxamide], the IC50 stood at 36 nM.
In turn, `O=C(Nc1cc(C(F)(F)F)cnc1N1CCC(O)CC1)c1cccc(-c2cn[nH]c2)n1` [Compound 100] had an IC50 of 59.7 nM.
Turning to `O=C(Nc1cc(C(F)(F)F)cnc1N1CCc2n[nH]cc2C1)c1ccc(C2CCOCC2)o1` [Compound 078], half-maximal inhibition (IC50) was put at 27.9 nM.
With `O=C(Nc1cc(C(F)(F)F)cnc1-c1ccncc1)c1ccc(C2CCOCC2)o1` [Compound 010] the figure was 8240 nM.
With `O=C(Nc1cc(C(F)(F)F)cnc1N1CCN(Cc2ccccn2)CC1)c1ccc(C2CCOCC2)o1` [Compound 002, N-(2-(4-(pyridin-2-ylmethyl)piperazin-1-yl)-5-(trifluoromethyl)pyridin-3-yl)-5-(tetrahydro-2H-pyran-4-yl) furan-2-carboxamide] the figure was 309 nM; with `O=C(Nc1cc(C(F)(F)F)cnc1N1CCC(O)CC1)c1ccc(-c2cn[nH]n2)o1` [Compound 108], 14.8 nM.
Take `O=C(Nc1cc(C(F)(F)F)cnc1N1CCc2[nH]ncc2C1)c1ccc(-c2cn[nH]c2)o1` [Compound 123]: the IC50 is > 30000 nM.
